Measured values from patent publication US8987315B2, “Metalloenzyme inhibitor compounds” (Innocrin Pharmaceuticals, Inc., priority 2009, dated 2015).

Tests used:
CYP2C9 = CYP2C9 (Homo sapiens (Human), UniProt P11712); assay: Inhibition of liver cytochrome P450 enzymes (human liver microsomes), CYP2C9
CYP2C19 = CYP2C19 (Homo sapiens (Human), UniProt P33261); assay: Inhibition of liver cytochrome P450 enzymes (human liver microsomes), CYP2C19
CYP3A4 = CYP3A4 (Homo sapiens (Human), UniProt P08684); assay: Inhibition of liver cytochrome P450 enzymes (human liver microsomes), CYP3A4
Sequence of CYP3A4 (P08684 whole entry): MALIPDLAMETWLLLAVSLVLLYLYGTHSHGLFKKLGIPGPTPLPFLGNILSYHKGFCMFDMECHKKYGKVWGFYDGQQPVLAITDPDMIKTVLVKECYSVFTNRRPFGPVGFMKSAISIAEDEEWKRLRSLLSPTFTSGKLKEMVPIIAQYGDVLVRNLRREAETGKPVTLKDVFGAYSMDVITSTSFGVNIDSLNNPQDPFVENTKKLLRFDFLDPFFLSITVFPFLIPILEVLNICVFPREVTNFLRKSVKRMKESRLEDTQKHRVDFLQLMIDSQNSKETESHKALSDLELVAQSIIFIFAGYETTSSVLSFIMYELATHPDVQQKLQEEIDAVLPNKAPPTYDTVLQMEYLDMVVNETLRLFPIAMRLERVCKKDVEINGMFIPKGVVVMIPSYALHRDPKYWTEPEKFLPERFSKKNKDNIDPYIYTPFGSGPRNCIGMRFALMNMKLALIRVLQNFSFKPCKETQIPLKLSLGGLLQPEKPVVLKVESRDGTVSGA

CYP17 = CYP17 (Rattus norvegicus (Rat), UniProt P11715); assay: Inhibition of CYP17 (rat testicular microsomes); type: biochemical; conditions: pooled rat testicular microsomes
Sequence of CYP17 (P11715 whole entry): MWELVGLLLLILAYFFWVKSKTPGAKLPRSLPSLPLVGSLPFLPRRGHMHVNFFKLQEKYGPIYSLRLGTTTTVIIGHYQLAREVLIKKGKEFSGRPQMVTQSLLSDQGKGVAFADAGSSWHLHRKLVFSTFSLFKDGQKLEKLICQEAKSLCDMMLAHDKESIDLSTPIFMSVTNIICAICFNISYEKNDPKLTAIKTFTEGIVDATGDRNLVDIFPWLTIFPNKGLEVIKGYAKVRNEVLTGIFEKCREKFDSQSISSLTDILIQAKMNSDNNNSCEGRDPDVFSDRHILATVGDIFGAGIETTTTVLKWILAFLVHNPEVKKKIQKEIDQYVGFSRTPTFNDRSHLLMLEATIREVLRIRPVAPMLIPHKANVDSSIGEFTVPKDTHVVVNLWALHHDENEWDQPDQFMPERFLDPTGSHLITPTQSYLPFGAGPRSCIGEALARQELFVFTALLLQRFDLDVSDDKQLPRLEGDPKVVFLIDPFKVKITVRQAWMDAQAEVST

Sequence of CYP2C19 (P33261 whole entry): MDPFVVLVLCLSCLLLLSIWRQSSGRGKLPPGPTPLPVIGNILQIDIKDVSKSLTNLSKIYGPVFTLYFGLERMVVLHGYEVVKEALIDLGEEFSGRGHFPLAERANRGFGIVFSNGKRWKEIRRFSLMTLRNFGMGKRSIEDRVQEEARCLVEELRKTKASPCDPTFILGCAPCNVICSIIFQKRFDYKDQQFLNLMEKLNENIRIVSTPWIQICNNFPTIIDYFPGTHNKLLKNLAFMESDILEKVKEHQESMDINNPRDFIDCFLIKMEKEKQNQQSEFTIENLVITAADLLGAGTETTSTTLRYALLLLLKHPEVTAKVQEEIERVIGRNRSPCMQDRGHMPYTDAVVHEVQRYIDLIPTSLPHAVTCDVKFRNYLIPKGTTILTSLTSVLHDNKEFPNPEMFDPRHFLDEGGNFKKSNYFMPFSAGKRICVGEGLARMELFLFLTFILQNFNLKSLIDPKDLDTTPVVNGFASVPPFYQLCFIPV
Sequence of CYP2C9 (P11712 whole entry): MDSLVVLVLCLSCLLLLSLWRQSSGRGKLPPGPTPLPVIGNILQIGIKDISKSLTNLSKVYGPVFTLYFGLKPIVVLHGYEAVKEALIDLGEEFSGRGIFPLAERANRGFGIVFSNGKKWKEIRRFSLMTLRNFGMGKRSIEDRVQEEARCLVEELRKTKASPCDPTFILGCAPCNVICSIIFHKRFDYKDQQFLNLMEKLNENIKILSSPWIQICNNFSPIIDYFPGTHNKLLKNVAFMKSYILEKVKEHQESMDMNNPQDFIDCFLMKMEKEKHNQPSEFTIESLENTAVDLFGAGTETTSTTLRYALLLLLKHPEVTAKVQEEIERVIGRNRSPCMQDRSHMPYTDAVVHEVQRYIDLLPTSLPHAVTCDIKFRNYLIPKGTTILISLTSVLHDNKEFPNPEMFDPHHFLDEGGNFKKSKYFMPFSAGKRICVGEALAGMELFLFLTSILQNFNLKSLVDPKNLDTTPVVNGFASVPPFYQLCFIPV

| Structure (SMILES) | IC50 (CYP2C9) [µM] | IC50 (CYP2C19) [µM] | IC50 (CYP3A4) [µM] | IC50 (CYP17) [µM] |
| --- | --- | --- | --- | --- |
| CC(C)C(c1ccc2cc(OC(F)F)c(OC(F)F)cc2c1)n1ncnn1 (centres unmarked) [Example 1, 2-(1-(6,7-bis(difluoromethoxy)naphthalen-2-yl)-2-methylpropyl)-2H-tetrazole] | 7 | 37 | > 200 | 0.4 |
| CC(C)C(c1ccc2cc(OCC(F)(F)F)ccc2c1)n1ncnn1 (centres unmarked) [Example 2, 2-(2-Methyl-1-(6-(2,2,2-trifluoroethoxy)naphthalen-2-yl)propyl)-2H-tetrazole] | 27 | 45 | – | 0.46 |
| COc1cc2ccc(C(C(C)C)n3ncnn3)cc2cc1OC (centres unmarked) [Example 3, 2-(1-(6,7-Dimethoxynaphthalen-2-yl)-2-methylpropyl)-2H-tetrazole] | 4.8 | 30 | > 200 | 0.27 |
| CC(C)C(c1ccc2cc(OC(F)F)ccc2c1)n1ncnn1 (centres unmarked) [Example 4, 2-(1-(6-(difluoromethoxy)naphthalen-2-yl)-2-methylpropyl)-2H-tetrazole] | 15 | 35 | – | 0.21 |
